{"source": "patent US10681911B2", "about": "“Anthelminthic composition” (AgResearch Limited, priority 2016, dated 2020)", "key": {"[1]": {"test_system": "nematode egg and larval stages in dung", "experiment": "Mini dung egg hatch-survival assay", "conditions": "treatments applied to fresh dung on days 0 through 7, harvested days 12-16", "description": "All the dung samples were then left until day 12 when the first replicates were harvested. The last replicate was sampled on day 16. Hatched larvae were separated from the dung and numerated via microscopic examination. Town supply tap water was used for solution preparation and used as the reference control treatment. Sodium hypochlorite was added to tap-water to form a bleach solution containing 5% w/v NaOCl."}, "[2]": {"test_system": "eggs of free-living parasitic nematodes", "experiment": "Egg hatch assay", "description": "Approximately 125 eggs were place in 24 well plate wells and treatments applied. After 24 hours, unhatched eggs and larvae were numerated by microscopic examination. Town supply tap water was used for solution preparation and used as the reference control treatment Sodium hypochlorite was added to tap-water to form a bleach solution containing 5% w/v NaOCl […]"}, "Haemonchus contortus L3": {"test_system": "Haemonchus contortus L3", "conditions": "in vivo"}, "Haemonchus controtus L3": {"test_system": "Haemonchus controtus L3", "experiment": "Petri-dish laboratory study of efficacy against L3", "conditions": "for Measured efficacy: 24 ml solution, live L3 recovered by Baermann funnel, 10 replicates; for effectiveness in killing L3: result in words"}, "[3]": {"type": "physicochemical"}}, "data": [{"compound": "OCl", "note": "[Bleach, Sodium hypochlorite]", "values": [{"measurement": "impact on nematode development in dung", "setting": "[1]", "result": "small impact on all stage of the nematode development from the egg through to the L1, 2 and 3 stages"}, {"measurement": "effect on eggs and egg hatching", "setting": "[2]; after 24 hours, result in words", "result": "destroyed all the eggs"}, {"measurement": "Average of % hatch", "setting": "[2]; approximately 125 eggs per well, after 24 hours", "result": 0.0, "unit": "%"}, {"measurement": "Average of larvae", "setting": "[2]; approximately 125 eggs per well, larvae counted after 24 hours", "result": 0.0}, {"measurement": "Average of eggs", "setting": "[2]; approximately 125 eggs per well, unhatched eggs counted after 24 hours", "result": 0.3}]}, {"compound": "[Ca+2].[OH-].[OH-]", "note": "[Ca(OH)2 0.1%, calcium hydroxide]", "values": [{"measurement": "impact on L3 numbers in faeces", "setting": "Haemonchus contortus L3", "result": "Neither ammonium nitrate nor calcium hydroxide applied alone or in combination had any impact on L3 numbers in faeces"}, {"measurement": "impact on L3 numbers on pasture", "setting": "Haemonchus contortus L3", "result": "neither ammonium nitrate nor calcium hydroxide applied alone had any impact on L3 numbers on pasture"}, {"measurement": "Measured efficacy", "setting": "Haemonchus controtus L3; listed as Ca(OH)2 0.100%", "result": 93, "unit": "%"}, {"measurement": "effectiveness in killing L3", "setting": "Haemonchus controtus L3", "result": "effective in killing L3"}, {"measurement": "pH 0", "setting": "[3]", "result": 12.0}]}, {"compound": "[Ca+2].[OH-].[OH-]", "note": "[Ca(OH)2 0.05%, calcium hydroxide]", "values": [{"measurement": "Measured efficacy", "setting": "Haemonchus controtus L3; listed as Ca(OH)2 0.050%", "result": 69, "unit": "%"}, {"measurement": "pH 0", "setting": "[3]", "result": 11.6}]}, {"compound": "[Ca+2].[OH-].[OH-]", "note": "[Ca(OH)2 0.013%, calcium hydroxide]", "values": [{"measurement": "Measured efficacy", "setting": "Haemonchus controtus L3", "result": 28, "unit": "%"}, {"measurement": "pH 0", "setting": "[3]", "result": 11.0}]}, {"compound": "[Ca+2].[OH-].[OH-]", "note": "[Ca(OH)2 0.025%, calcium hydroxide]", "values": [{"measurement": "Measured efficacy", "setting": "Haemonchus controtus L3", "result": 43, "unit": "%"}, {"measurement": "pH 0", "setting": "[3]", "result": 11.3}]}, {"compound": "ammonium nitrate [NH4NO3 1.75%]", "values": [{"measurement": "Measured efficacy", "setting": "Haemonchus controtus L3", "result": "−39", "unit": "%"}]}, {"compound": "ammonium nitrate [NH4NO3 3.5%]", "values": [{"measurement": "Measured efficacy", "setting": "Haemonchus controtus L3", "result": 12, "unit": "%"}]}, {"compound": "ammonium nitrate [NH4NO3 7%]", "values": [{"measurement": "Measured efficacy", "setting": "Haemonchus controtus L3", "result": 72, "unit": "%"}]}, {"compound": "ammonium nitrate [NH4NO3 13.5%]", "values": [{"measurement": "Measured efficacy", "setting": "Haemonchus controtus L3", "result": 97, "unit": "%"}, {"measurement": "effectiveness in killing L3", "setting": "Haemonchus controtus L3", "result": "effective in killing L3"}]}]}
